Reference: patent US6436428B1, “Device and method for treating urinary incontinence in females” (Enhance Pharmaceuticals, Inc., priority 2000, dated 2002)

Key:
[1] = Plasma oxybutynin and desethyloxybutynin in rabbits with vaginal inserts; type: in vivo, rabbit; conditions: for plasma values at all time periods (day 1-7): 5.0 mg/day vaginal insert; for plasma concentration: days 1-7
Experimental: 12 rabbits were separated into 4 groups of 3 rabbits each. Under pentobarbital anesthesia (25 mg/kg, iv) A cylinder-shaped, curved silastic insert was placed in the vagina of each rabbit. This was accomplished by the following: a midline laparotomy was performed and after transvaginal insertion the implant was anchored with a single 2.0 silk suture through the outer vaginal wall and knotted to a 1 cm section of a medical-grade tubing to avoid damage to the vaginal wall. The inserts in group one contained vehicle, the inserts in groups 2-4 were calculated to release oxybutynin at rates of 0.5 mg/day; 1 mg/day; and 5 mg/day respectively. The inserts remained in place for 7 days. Samples of blood (2 ml) were collected at 12:00 noon on days 1, 3, 5 and 7. After the last blood sample was obtained, each rabbit was sedated and cystometries were performed. Immediately after the cystometry, the rabbit was euthanized, the lower urinary tract including the vagina was removed and evaluated for irritation. In addition, the bladder was excised and weighed.
The samples of blood were frozen and subsequently analyzed. The oxybutynin and desethyloxybutynin concentrations were quantified.

[2] = oral administration of oxybutynin; cited from earlier work

change of plasma concentration between day 1 and 3 ([1]; 0.5 mg/day vaginal insert)	plasma concentration course between days 3 and 7 ([1]; 0.5 mg/day vaginal insert)	change of plasma concentration between day 1 and 3 ([1]; 1.0 mg/day vaginal insert)	plasma concentration course between days 3 and 7 ([1]; 1.0 mg/day vaginal insert)	stable plasma concentration of 1.0 mg/day group relative to 0.5 mg/day group ([1]; vaginal inserts, FIG. 18)	stable plasma concentration of 5.0 mg/day group relative to 1.0 mg/day group ([1]; vaginal inserts, FIG. 18)	SMILES	plasma values at all time periods (day 1-7) [1]	AUC (area under the plasma time concentration curve) of the metabolite relative to oxybutynin [2]	peak blood concentration of the metabolite relative to oxybutynin [2]	plasma concentration ([1]; 0.5 mg/day vaginal insert)	plasma concentration ([1]; 1.0 mg/day vaginal insert)
increase	stable concentration	increase	stable concentration	approximately twice	approximately 4 fold	CCN(CC)CC#CCOC(=O)C(O)(c1ccccc1)C1CCCCC1 (stereo not drawn) [oxybutynin, 4-diethylamino-2-butynylphenylcyclohexylglycolate]	stable plasma values	–	–	–	–
–	–	–	–	–	–	CCNCC#CCOC(=O)C(O)(c1ccccc1)C1CCCCC1 (stereo not drawn) [N-desethyloxybutynin]	stable plasma values	10-12 times	6-9 times higher	below the level of detection	below the level of detection
